Our source for the Emax and EC50 values is patent US9796733B2, “Imidazo-pyrazine derivatives useful as soluble guanylate cyclase activators” (Merck Sharp & Dohme Corp., priority 2014, dated 2017).

In the test the target is T1, sGC α1/β1 heterodimer (Homo sapiens, UniProt Q02108+Q02153).
T1 construct: expressed in transfected cells; host or cells: CHO-K1 (clone #7, CHO-K1/sGC)
T1 sequence (Q02108 1-690): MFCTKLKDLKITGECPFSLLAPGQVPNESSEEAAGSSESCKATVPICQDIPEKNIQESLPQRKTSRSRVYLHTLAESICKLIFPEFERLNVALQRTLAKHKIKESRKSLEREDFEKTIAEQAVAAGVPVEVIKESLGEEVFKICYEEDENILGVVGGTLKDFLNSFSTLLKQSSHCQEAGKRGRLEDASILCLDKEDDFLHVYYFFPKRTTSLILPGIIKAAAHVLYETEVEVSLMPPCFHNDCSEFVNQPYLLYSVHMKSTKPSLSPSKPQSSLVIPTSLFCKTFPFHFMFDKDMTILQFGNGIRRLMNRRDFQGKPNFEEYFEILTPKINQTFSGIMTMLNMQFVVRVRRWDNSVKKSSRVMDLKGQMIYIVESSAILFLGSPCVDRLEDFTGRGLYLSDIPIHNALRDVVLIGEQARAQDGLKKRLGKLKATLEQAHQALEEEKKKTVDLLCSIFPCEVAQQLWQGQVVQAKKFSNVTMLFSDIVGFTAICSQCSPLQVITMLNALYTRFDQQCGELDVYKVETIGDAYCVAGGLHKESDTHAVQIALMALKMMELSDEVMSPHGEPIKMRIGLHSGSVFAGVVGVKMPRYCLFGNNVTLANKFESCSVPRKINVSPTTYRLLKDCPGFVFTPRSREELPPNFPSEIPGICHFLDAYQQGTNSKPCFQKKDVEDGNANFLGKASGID
T1 sequence (Q02153 1-619): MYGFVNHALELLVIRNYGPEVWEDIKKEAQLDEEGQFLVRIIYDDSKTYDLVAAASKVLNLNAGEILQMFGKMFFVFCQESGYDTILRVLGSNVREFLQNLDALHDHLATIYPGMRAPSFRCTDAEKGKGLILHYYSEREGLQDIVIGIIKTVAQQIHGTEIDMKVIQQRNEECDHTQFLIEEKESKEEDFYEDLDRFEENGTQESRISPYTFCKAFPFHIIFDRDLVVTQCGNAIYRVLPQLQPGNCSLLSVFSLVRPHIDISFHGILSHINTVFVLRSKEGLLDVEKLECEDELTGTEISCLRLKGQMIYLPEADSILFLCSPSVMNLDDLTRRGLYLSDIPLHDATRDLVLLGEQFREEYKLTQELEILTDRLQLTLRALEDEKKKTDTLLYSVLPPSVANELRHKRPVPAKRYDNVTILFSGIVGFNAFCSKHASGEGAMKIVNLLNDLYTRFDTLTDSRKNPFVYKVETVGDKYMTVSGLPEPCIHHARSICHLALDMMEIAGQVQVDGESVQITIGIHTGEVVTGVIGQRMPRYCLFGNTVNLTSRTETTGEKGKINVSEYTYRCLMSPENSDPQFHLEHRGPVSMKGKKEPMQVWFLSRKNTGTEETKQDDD
The experiment in a line: Cell-based sGC functional assay (CASA assay): cGMP generation in CHO-K1/sGC cells, HTRF detection. The settings on record: for Emax: CHO-K1, percent activation relative to standard Compound A in CHO-K1/sGC cells, read-out: % Act.; for EC50: inflection point (IP) of cGMP generation in CHO-K1/sGC cells, 4P fit, activity expressed as percentage of Compound A. A digest of the protocol:
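cGMP was quantified by HTRF after 1 hr, 37° C exposure of thawed CHO-K1 cells expressing sGC α1/β1 to compound, with or without 1 μM DETA-NO. IBMX (0.5 mM) blocked cGMP breakdown, and DMSO was 2.5% final. Percent of standard Compound A's maximal cGMP was fitted (4P) for inflection point.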

Turning to `CC1(c2ccc(F)cc2)C(=O)Nc2nc(-c3cn4ccnc4c(Cc4ccc(F)c(F)c4)n3)nc(N)c21` (stereo not shown) [Example 96A, 4-amino-2-(8-(3,4-difluorobenzyl)imidazo[1,2-a]pyrazin-6-yl)-5-(4-fluorophenyl)-5-methyl-5H-pyrrolo[2,3-d]pyrimidin-6(7H)-one], the Emax worked out at 106% and the EC50 came to 4 nM.

For the compound `CC1(c2ccc(Cl)cc2)C(=O)Nc2nc(-c3cn4ccnc4c(Cc4ccc(F)c(F)c4)n3)nc(N)c21` (stereo not shown) [Example 97A, 4-amino-5-(4-chlorophenyl)-2-(8-(3,4-difluorobenzyl)imidazo[1,2-a]pyrazin-6-yl)-5-methyl-5H-pyrrolo[2,3-d]pyrimidin-6(7H)-one], the Emax worked out at 145% and the response was half-maximal at 5 nM (EC50).

For the compound `CC1(c2ccc(F)cc2)C(=O)Nc2nc(-c3cn4ccnc4c(Cc4c(F)ccc(F)c4F)n3)nc(N)c21` (stereo not shown) [Example 98A, 4-amino-5-(4-fluorophenyl)-5-methyl-2-(8-(2,3,6-trifluorobenzyl)imidazo[1,2-a]pyrazin-6-yl)-5H-pyrrolo[2,3-d]pyrimidin-6(7H)-one], the Emax stood at 110% and it took 13 nM to reach a half-maximal effect (EC50).

On to `CC1(c2ccc(Cl)cc2)C(=O)Nc2nc(-c3cn4ccnc4c(Cc4ccc(F)cc4)n3)nc(N)c21` (stereo not shown) [Example 99A, 4-amino-5-(4-chlorophenyl)-2-(8-(4-fluorobenzyl)imidazo[1,2-a]pyrazin-6-yl)-5-methyl-5H-pyrrolo[2,3-d]pyrimidin-6(7H)-one], for which the Emax came to 119% and a half-maximal response (EC50) required 11 nM.

Take `CC1(c2ccccc2)C(=O)Nc2nc(-c3cn4ccnc4c(Cc4cccc(F)c4)n3)nc(N)c21` (stereo not shown) [Example 101B, 4-amino-2-(8-(3-fluorobenzyl)imidazo[1,2-a]pyrazin-6-yl)-5-methyl-5-phenyl-5H-pyrrolo[2,3-d]pyrimidin-6(7H)-one]: the Emax is 116% and the midpoint of the response, the EC50, lay at 34 nM.

With `CC1(c2ccccc2)C(=O)Nc2nc(-c3cn4ccnc4c(Cc4ccccc4)n3)nc(N)c21` (stereo not shown) [Example 102B, 4-amino-2-(8-benzylimidazo[1,2-a]pyrazin-6-yl)-5-methyl-5-phenyl-5H-pyrrolo[2,3-d]pyrimidin-6(7H)-one], the Emax was found to be 89% and the midpoint of the response, the EC50, lay at 15 nM.

`CC1(c2ccccn2)C(=O)Nc2nc(-c3cn4ccnc4c(Cc4ccc(F)cc4)n3)nc(N)c21` (stereo not shown) [Example 103B, 4-amino-2-(8-(4-fluorobenzyl)imidazo[1,2-a]pyrazin-6-yl)-5-methyl-5-(pyridin-2-yl)-5H-pyrrolo[2,3-d]pyrimidin-6(7H)-one]: the Emax was 85% and the half-maximal effective concentration (EC50) was found to be 18 nM.

On to `Nc1nc(-c2cn3ccnc3c(Cc3ccc(F)cc3)n2)nc2c1C(c1ccc(F)cn1)(C1CC1)C(=O)N2` (stereo not shown) [Example 104A, 4-amino-5-cyclopropyl-2-(8-(4-fluorobenzyl)imidazo[1,2-a]pyrazin-6-yl)-5-(5-fluoropyridin-2-yl)-5H-pyrrolo[2,3-d]pyrimidin-6(7H)-one], for which the Emax is 132% and the EC50 is 396 nM.

For `Cc1ccc(C2(C)C(=O)Nc3nc(-c4cn5ccnc5c(Cc5ccc(F)cc5)n4)nc(N)c32)cn1` (stereo not shown) [Example 105A, 4-amino-2-(8-(4-fluorobenzyl)imidazo[1,2-a]pyrazin-6-yl)-5-methyl-5-(6-methylpyridin-3-yl)-5H-pyrrolo[2,3-d]pyrimidin-6(7H)-one], the Emax is 102% and the half-maximal effective concentration (EC50) was determined as 384 nM.

As for `CCC1(c2ccc(F)cn2)C(=O)Nc2nc(-c3cn4ccnc4c(Cc4ccc(F)cc4)n3)nc(N)c21` (stereo not shown) [Example 106A, 4-amino-5-ethyl-2-(8-(4-fluorobenzyl)imidazo[1,2-a]pyrazin-6-yl)-5-(5-fluoropyridin-2-yl)-5H-pyrrolo[2,3-d]pyrimidin-6(7H)-one], the Emax was 83% and the 50% effective concentration (EC50) came to 252 nM.

As to `CC1(c2ccc(Cl)cn2)C(=O)Nc2nc(-c3cn4ccnc4c(Cc4ccc(F)cc4)n3)nc(N)c21` (stereo not shown) [Example 107A, 4-amino-5-(5-chloropyridin-2-yl)-2-(8-(4-fluorobenzyl)imidazo[1,2-a]pyrazin-6-yl)-5-methyl-5H-pyrrolo[2,3-d]pyrimidin-6(7H)-one], the Emax was 171% and the EC50 turned out to be 86 nM.

`Nc1nc(-c2cn3ccnc3c(Cc3ccccc3F)n2)nc2c1C(c1ccc(Cl)cn1)(C1CC1)C(=O)N2` (stereo not shown) [Example 110A, 4-amino-5-(5-chloropyridin-2-yl)-5-cyclopropyl-2-(8-(2-fluorobenzyl)imidazo[1,2-a]pyrazin-6-yl)-5H-pyrrolo[2,3-d]pyrimidin-6(7H)-one]: the Emax is 154% and the EC50 was 51 nM.

`CC1(c2ccc(Cl)c(F)c2)C(=O)Nc2nc(-c3cn4ccnc4c(CC4CCC4)n3)nc(N)c21` (stereo not shown) [Example 113B, 4-amino-5-(4-chloro-3-fluorophenyl)-2-(8-(cyclobutylmethyl)imidazo [1,2-a]pyrazin-6-yl)-5-methyl-5H-pyrrolo[2,3-d]pyrimidin-6(7H)-one]: the Emax came to 138% and the 50% effective concentration (EC50) is 5 nM.

Consider `CC1(c2ccc(Cl)cn2)C(=O)Nc2nc(-c3cn4ccnc4c(CC4CCC4)n3)nc(N)c21` (stereo not shown) [Example 116A, 4-amino-5-(5-chloropyridin-2-yl)-2-(8-(cyclobutylmethyl)imidazo [1,2-a]pyrazin-6-yl)-5-methyl-5H-pyrrolo[2,3-d]pyrimidin-6(7H)-one], for which the Emax was found to be 79% and a half-maximal effect (EC50) was put at 10 nM.

Regarding `CC1(c2ccc(OC(F)F)cn2)C(=O)Nc2nc(-c3cn4ccnc4c(CC4CCC4)n3)nc(N)c21` (stereo not shown) [Example 117A, 4-amino-2-(8-(cyclobutylmethyl)imidazo [1,2-a]pyrazin-6-yl)-5-(5-(difluoromethoxy)pyridin-2-yl)-5-methyl-5H-pyrrolo[2,3-d]pyrimidin-6(7H)-one], the Emax was 103% and the EC50 was determined as 33 nM.

As for `CC1(c2ccc(C(F)(F)F)cn2)C(=O)Nc2nc(-c3cn4ccnc4c(CC4CCC4)n3)nc(N)c21` (stereo not shown) [Example 119B, 4-amino-2-(8-(cyclobutylmethyl)imidazo [1,2-a]pyrazin-6-yl)-5-methyl-5-(5-(trifluoromethyl)pyridin-2-yl)-5H-pyrrolo[2,3-d]pyrimidin-6(7H)-one], the Emax was found to be 121% and the midpoint of the response, the EC50, lay at 161 nM.

In the case of `CC(C)(C)CCc1nc(-c2nc(N)c3c(n2)NC(=O)C3(C)c2ccc(Cl)cc2)cn2ccnc12` (stereo not shown) [Example 120A, 4-amino-5-(4-chlorophenyl)-2-(8-(3,3-dimethylbutyl)imidazo[1,2-a]pyrazin-6-yl)-5-methyl-5H-pyrrolo[2,3-d]pyrimidin-6(7H)-one], the Emax was determined as 112% and the 50% effective concentration (EC50) stood at 31 nM.

`CC(C)(C)CCc1nc(-c2nc(N)c3c(n2)NC(=O)C3(C)c2ccc(F)cc2)cn2ccnc12` (stereo not shown) [Example 121A, 4-amino-2-(8-(3,3-dimethylbutyl)imidazo[1,2-a]pyrazin-6-yl)-5-(4-fluorophenyl)-5-methyl-5H-pyrrolo[2,3-d]pyrimidin-6(7H)-one]: the Emax amounted to 145% and the midpoint of the response, the EC50, lay at 56 nM.

Consider `CC(C)(C)CCc1nc(-c2nc(N)c3c(n2)NC(=O)C3(C)c2ccc(F)cn2)cn2ccnc12` (stereo not shown) [Example 122B, 4-amino-2-(8-(3,3-dimethylbutyl)imidazo[1,2-a]pyrazin-6-yl)-5-(5-fluoropyridin-2-yl)-5-methyl-5H-pyrrolo[2,3-d]pyrimidin-6(7H)-one], for which the Emax was 119% and it took 92 nM to reach a half-maximal effect (EC50).

As for `CC(C)(C)CCc1nc(-c2nc(N)c3c(n2)NC(=O)C3(C)c2ccc(Cl)cn2)cn2ccnc12` (stereo not shown) [Example 123A, 4-amino-5-(5-chloropyridin-2-yl)-2-(8-(3,3-dimethylbutyl)imidazo[1,2-a]pyrazin-6-yl)-5-methyl-5H-pyrrolo[2,3-d]pyrimidin-6(7H)-one], the Emax was determined as 105% and it took 61 nM to reach a half-maximal effect (EC50).
